# Measurements from ChEMBL document CHEMBL3259736, “Synthesis of new simplified hemiasterlin derivatives with α,β-unsaturated carbonyl moiety” (Bioorg Med Chem Lett, 2014).
# Key:
# Type in all cases: functional, cell-based
# [1] = Cytotoxicity against human Lu cells assessed as inhibition of cell growth after 3 days by MTT assay; conditions: 72 h
# [2] = tested on: HepG2; experiment: Cytotoxicity against human HepG2 cells assessed as inhibition of cell growth after 3 days by MTT assay; conditions: HepG2, 72 h
# [3] = tested on: MCF7; experiment: Cytotoxicity against human MCF7 cells assessed as inhibition of cell growth after 3 days by MTT assay; conditions: MCF7, 72 h
# [4] = tested on: KB; experiment: Cytotoxicity against human KB cells assessed as inhibition of cell growth after 3 days by MTT assay; conditions: 72 h
Structure (SMILES),IC50 [1] [nM],IC50 [2] [nM],IC50 [3] [nM],IC50 [4] [nM]
CCOC(=O)/C(C)=C/[C@@H](NC(=O)[C@@H](NC(=O)/C(=C/c1ccsc1)NC(C)=O)C(C)(C)C)C(C)C,> 269,57.6,203,107
CCOC(=O)/C(C)=C/[C@H](C(C)C)N(C)C(=O)[C@@H](NC(=O)/C(=C/c1ccoc1)NC(C)=O)C(C)(C)C,158,16.3,113,24.1
CC(=O)N/C(=C\c1ccco1)C(=O)N[C@H](C(=O)N(C)[C@H](/C=C(\C)C(=O)O)C(C)C)C(C)(C)C,> 269,> 269,> 269,188
CCOC(=O)/C(C)=C/[C@@H](NC(=O)[C@@H](NC(=O)/C(=C/c1ccoc1)NC(C)=O)C(C)(C)C)C(C)C,> 269,67.3,> 269,86.2
CCOC(=O)/C(C)=C/[C@H](C(C)C)N(C)C(=O)[C@@H](NC(=O)/C(=C/c1ccc2ccccc2c1)NC(C)=O)C(C)(C)C,> 269,23.1,67.9,23
CCOC(=O)/C(C)=C/[C@H](C(C)C)N(C)C(=O)[C@@H](NC(=O)/C(=C/c1cccc(OC)c1)NC(C)=O)C(C)(C)C,> 269,> 269,> 269,> 269
CCOC(=O)/C(C)=C/[C@@H](NC(=O)[C@@H](NC(=O)/C(=C/c1ccc2ccccc2c1)NC(C)=O)C(C)(C)C)C(C)C,> 269,39.7,42.3,30.8
CC(=O)N/C(=C\c1ccoc1)C(=O)N[C@H](C(=O)N[C@H](/C=C(\C)C(=O)O)C(C)C)C(C)(C)C,> 269,> 269,> 269,155
CC(=O)N/C(=C\c1ccoc1)C(=O)N[C@H](C(=O)N(C)[C@H](/C=C(\C)C(=O)O)C(C)C)C(C)(C)C,> 269,149,> 269,> 269
CCOC(=O)/C(C)=C/[C@H](C(C)C)N(C)C(=O)[C@@H](NC(=O)/C(=C/c1ccc(Br)cc1)NC(C)=O)C(C)(C)C,> 269,> 269,> 269,49
CCOC(=O)/C(C)=C/[C@@H](NC(=O)[C@@H](NC(=O)/C(=C/c1cccc(OC)c1)NC(C)=O)C(C)(C)C)C(C)C,228,47.7,62,77.4
COc1cccc(/C=C(\NC(C)=O)C(=O)N[C@H](C(=O)N(C)[C@H](/C=C(\C)C(=O)O)C(C)C)C(C)(C)C)c1,> 269,> 269,> 269,> 269
CC(=O)N/C(=C\c1ccc(Br)cc1)C(=O)N[C@H](C(=O)N(C)[C@H](/C=C(\C)C(=O)O)C(C)C)C(C)(C)C,> 269,> 269,> 269,> 269
CC(=O)N/C(=C\c1ccc2ccccc2c1)C(=O)N[C@H](C(=O)N(C)[C@H](/C=C(\C)C(=O)O)C(C)C)C(C)(C)C,> 269,13,> 269,69.7
CCOC(=O)/C(C)=C/[C@@H](NC(=O)[C@@H](NC(=O)/C(=C/c1cccc(Br)c1)NC(C)=O)C(C)(C)C)C(C)C,> 269,> 269,> 269,> 269
COc1ccc(/C=C(\NC(C)=O)C(=O)N[C@H](C(=O)N[C@H](/C=C(\C)C(=O)O)C(C)C)C(C)(C)C)cc1,> 269,> 269,> 269,> 269

Structure (SMILES),IC50 [1] [nM],IC50 [2] [nM],IC50 [3] [nM],IC50 [4] [nM]
CC(=O)N/C(=C\c1ccsc1)C(=O)N[C@H](C(=O)N(C)[C@H](/C=C(\C)C(=O)O)C(C)C)C(C)(C)C,> 269,63.2,> 269,234
CCOC(=O)/C(C)=C/[C@@H](NC(=O)[C@@H](NC(=O)/C(=C/c1ccc(OC)cc1)NC(C)=O)C(C)(C)C)C(C)C,> 269,> 269,> 269,> 269
CCOC(=O)/C(C)=C/[C@@H](NC(=O)[C@@H](NC(=O)/C(=C/c1ccc(Br)cc1)NC(C)=O)C(C)(C)C)C(C)C,> 269,> 269,> 269,> 269
CCOC(=O)/C(C)=C/[C@H](C(C)C)N(C)C(=O)[C@@H](NC(=O)/C(=C/c1ccco1)NC(C)=O)C(C)(C)C,231,31.4,178,3.5
CCOC(=O)/C(C)=C/[C@@H](NC(=O)[C@@H](NC(=O)/C(=C/c1ccco1)NC(C)=O)C(C)(C)C)C(C)C,> 269,214,> 269,160
CC(=O)O[C@H]1C(=O)[C@@]2(C)[C@H]([C@H](OC(=O)c3ccccc3)[C@]3(O)C[C@H](OC(=O)[C@H](O)[C@@H](NC(=O)c4ccccc4)c4ccccc4)C(C)=C1C3(C)C)[C@]1(OC(C)=O)CO[C@@H]1C[C@@H]2O [PACLITAXEL],,0.19,,3.9
CCOC(=O)/C(C)=C/[C@H](C(C)C)N(C)C(=O)[C@@H](NC(=O)/C(=C/c1ccsc1)NC(C)=O)C(C)(C)C,> 269,15,> 269,202
CC(=O)N/C(=C\c1ccsc1)C(=O)N[C@H](C(=O)N[C@H](/C=C(\C)C(=O)O)C(C)C)C(C)(C)C,> 269,> 269,> 269,> 269
COc1cccc(/C=C(\NC(C)=O)C(=O)N[C@H](C(=O)N[C@H](/C=C(\C)C(=O)O)C(C)C)C(C)(C)C)c1,> 269,> 269,> 269,> 269
CC(=O)N/C(=C\c1ccco1)C(=O)N[C@H](C(=O)N[C@H](/C=C(\C)C(=O)O)C(C)C)C(C)(C)C,> 269,17.8,> 269,8.2
CC(=O)N/C(=C\c1ccc2ccccc2c1)C(=O)N[C@H](C(=O)N[C@H](/C=C(\C)C(=O)O)C(C)C)C(C)(C)C,> 269,33.4,> 269,63
CC(=O)N/C(=C\c1cccc(Br)c1)C(=O)N[C@H](C(=O)N[C@H](/C=C(\C)C(=O)O)C(C)C)C(C)(C)C,> 269,> 269,> 269,> 269
CC(=O)N/C(=C\c1ccc(Br)cc1)C(=O)N[C@H](C(=O)N[C@H](/C=C(\C)C(=O)O)C(C)C)C(C)(C)C,> 269,> 269,> 269,> 269
COc1ccc(/C=C(\NC(C)=O)C(=O)N[C@H](C(=O)N(C)[C@H](/C=C(\C)C(=O)O)C(C)C)C(C)(C)C)cc1,> 269,63.8,> 269,15.8
Cc1c2ccncc2c(C)c2c1[nH]c1ccccc12 [ELLIPTECINE],1.82,1.26,2.15,1.26
CCOC(=O)/C(C)=C/[C@H](C(C)C)N(C)C(=O)[C@@H](NC(=O)/C(=C/c1ccc(OC)cc1)NC(C)=O)C(C)(C)C,> 269,3.7,215,3.7
